Measured values taken from patent US4801607A, “Antiviral furanoditerpenoids” (Harbor Branch Oceanographic Institution, Inc., priority 1987, dated 1989).
In brackets after ≈: the same amount, converted by molar mass. Like-named read-outs stand apart in the source and are kept apart here. Marks after values point to notes of the source that are not given here.

Experiments:
VSV = type: cell-based, vesicular stomatitis virus
human tumor cell lines = assay: Human tumor cell line assay (cell lines together); type: cell-based; conditions: 120 h, in concentrations of at least 10 μg/ml, read-out: concentrations with good activity against human tumor cell lines
Method: (§1) HCT-8 human colon tumor cells are grown in RPM1 1640 medium (GIBCO). A-549 human lung carcinoma cells are cultured in Dulbecco medium (Biologos, Inc.). MCF-7, MDA-MB 231 and T47D human breast carcinoma cells are grown in Eagles MEM medium. All media are supplemented with 10% fetal bovine serum and contain 50 μg/ml gentamicin. All human tumor cell lines are incubated in 5% CO2 at 37° and subcultured once a week. The seeding levels are 350,000 MCF-7 cells, 60,000 HCT-8 cells and 300,000 A-549 cells per T25 flask.
(§2) 2. Incubate in 5% CO2 for 48 hours.
(§3) 3. Add compound (50 μg)to each well and incubate for an additional 120 hours.
(§4) 4. Discard medium and stain with methylene blue (HCT-8) or crystal violet (A549 and MCF-7) for 30 minutes.
(§5) 5. Compare cell density of drug-treated well with that of the control (no drug added) as follows: ND (not detectable), >90%; 1+, 75-90%; 2+, 50-74%; 3+, 25-49%, 4+, <25% of control growth.

CV-1 cells = assay: Cytotoxicity in the antiviral disc assay
[1] = test system: A-549 human lung carcinoma cells; assay: Human tumor cell line assay, A-549 lung; type: cell-based; conditions: 120 hours, read-out: Antitumor activity, A-549
Method: as §1, §2, §3, §4, §5

[2] = test system: MDA-MB 231 human breast carcinoma cells; assay: Human tumor cell line assay, MDAMB mammary; type: cell-based; conditions: 120 hours, read-out: Antitumor activity, MDAMB
Method: as §1, §2, §3, §4, §5

[3] = test system: P388 mouse leukemia cells; assay: P388 mouse leukemia cell assay; type: cell-based; conditions: 48 hours
Method: P388 mouse leukemia cells are grown in Dulbecco's minimum essential medium with Earle's salts (MEM) with 10% horse serum, 4 mM glutamine, and 20 ug/ml gentamicin (Biologos, Inc.). Cells are incubated in 10% CO2 and subcultured 2 times per week. 1. Add compound to each well of a 24-well plate or tube and allow solvent to evaporate to dryness. 2. Add 2 ml (1.2×10^5) cells to each well or tube and mix. 3. Incubate in 10% CO2 at 37° for 48 hours. 4. Read plates with an inverted microscope, scoring activity from 1+ to 4+ as follows: ND (not detectable),>90%; 1+, 75-90%; 2+, 50-74%; 3+, 25-49%; 4+, <25% of control growth. Cell counts are performed on each tube and results are reported as percent of control. Positive control--Vinblastine or Vincristine in aqueous solution.

HSV-1 = assay: Antiviral disc assay, HSV-1 in CV-1 cells; type: cell-based, herpes simplex type 1
[4] = test system: HCT-8 human colon tumor cells; assay: Human tumor cell line assay, HCT-8 colon; type: cell-based; conditions: 120 hours, read-out: Antitumor activity, HCT-8
Method: as §1, §2, §3, §4, §5

## C[C@]12C[C@@H](O)C(=O)[C@](C)(CO)[C@@H]1CC[C@@]1(C)c3cocc3CC[C@H]21 [Composition 1, isospongiadiol]
VSV; 20 μg/disk
  VSV Activity: +
Human tumor cell lines
  minimal effective concentration: ≥ 10 µg/mL
CV-1 cells; 2 μg/disk
  Cytotoxicity: 0*
CV-1 cells; 20 μg/disk
  Cytotoxicity: 0*
[1]; A549, dose 1 μg/ml
  activity at 1 µg/mL: > 90%
[1]; A549, dose 10 μg/ml
  activity at 10 µg/mL: 25 to 49%
[1]; A549, dose 50 μg/ml
  activity at 50 µg/mL: < 25%
[2]; dose 1 μg/ml
  activity at 1 µg/mL: > 90%
[2]; dose 10 μg/ml
  activity at 10 µg/mL: 25 to 49%
[2]; dose 50 μg/ml
  activity at 50 µg/mL: < 25%
[3]
  IC50: 5 µg/mL (≈ 15 µM)
HSV-1; 2 μg/disk
  HSV-1 Activity: ++
HSV-1; 20 μg/disk
  HSV-1 Activity: +++
[4]; dose 1 μg/ml
  activity at 1 µg/mL: > 90%
[4]; dose 10 μg/ml
  activity at 10 µg/mL: 25 to 49%
[4]; dose 50 μg/ml
  activity at 50 µg/mL: < 25%

## C[C@]12CC(=O)[C@@H](O)[C@](C)(CO)[C@@H]1CC[C@@]1(C)c3cocc3CC[C@H]21 [Composition 2, spongiadiol]
VSV; 0.5 μg/disk
  VSV Activity: ++
VSV; 1 μg/disk
  VSV Activity: +++
[3]
  IC50: 0.5 µg/mL (≈ 1.5 µM)
HSV-1; 0.5 μg/disk
  HSV-1 Activity: +++

## C[C@]12CC(=O)[C@H](O)[C@](C)(CO)[C@@H]1CC[C@@]1(C)c3cocc3CC[C@H]21 [Composition 3, epispongiadiol]
VSV; 20 μg/disk
  VSV Activity: +
[3]
  IC50: 8 µg/mL (≈ 24.1 µM)
HSV-1; 6.25 μg/disk
  HSV-1 Activity: +
HSV-1; 12.5 μg/disk
  HSV-1 Activity: ++
